Values after ≈ are worked out from the molar mass of the structure shown.

What all share (format): cell-based
The test system of test [1] is Listeria monocytogenes (ATCC49594). Nature of the test: Microtitre plate assay, IC90 determination, LMO 49594. As to conditions: 90% inhibitory concentration for bacterial growth, 37° C., resazurin fluorescence; for IC90 (μg/ml) LMO 49594: 24 hours. How it is done: (§1) The bacteria used in this study were grown overnight in flasks containing 100 ml Mueller-Hinton Broth (Becton Dickinson—cat. no. 275730) in sterile de-ionized water, with shaking, at 37° C. Stocks (0.5 ml/tube) were stored at −70° C. until use. Bacteria titrations were performed in microtiter plates to detect the TCID50, in which the TCID50 represents the dilution that gives rise to bacterial growth in 50% of inoculated cultures.
(§2) In general, an inoculum level of approximately 100 TCID50 was used for susceptibility testing.
(§3) Flat-bottom, sterile 96-well plastic microtiter plates were filled with 180 μl of sterile deionized water, supplemented with 0.25% BSA. Subsequently, stock solutions (7.8× final test concentration) of compounds were added in 45 μl volumes in column 2. Serial five-fold dilutions (45 μl in 180 μl) were made directly in the microtiter plates from column 2 to reach column 11. Untreated control samples with (column 1) and without (column 12) inoculum were included in each microtiter plate. Depending on the bacteria type, approximately 10 to 60 CFU per well of bacteria inoculum (100 TCID50), in a volume of 100 μl in 2.8× Mueller-Hinton broth medium, was added to the rows A to H, except column 12. The same volume of broth medium without inoculum was added to column 12 in row A to H. The cultures were incubated at 37° C. for 24 hours under a normal atmosphere (incubator with open air valve and continuous ventilation). At the end of incubation, one day after inoculation, the bacterial growth was quantitated fluorometrically. Therefore resazurin (0.6 mg/ml) was added in a volume of 20 μl to all wells 3 hours after inoculation, and the plates were re-incubated overnight. A change in colour from blue to pink indicated the growth of bacteria. The fluorescence was read in a computer-controlled fluorometer (Cytofluor Biosearch) at an excitation wavelength of 530 nm and an emission wavelength of 590 nm. The % growth inhibition achieved by the compounds was calculated according to standard methods. The IC90 (expressed in μg/ml) was defined as the 90% inhibitory concentration for bacterial growth.
(§4) BSU 3639 means Bacillus subtilis (ATCC43639); ECO 25922 means Escherichia coli (ATCC25922); EFA 14506 means Enterococcus faecalis (ATCC14506); EFA 29212 means Enterococcus faecalis (ATCC29212); LMO 49594 means Listeria monocytogenes (ATCC49594); PAE 27853 means Pseudomonas aeruginosa (ATCC27853); SMU 33402 means Streptococcus mutans (ATCC33402); SPN 6305 means Streptococcus pneumoniae (ATCC6305); SPY 8668 means Streptococcus pyogens (ATCC8668); STA 43300 means Staphylococcus aureus (ATCC43300); STA 25923 means Staphylococcus aureus (ATCC25923); STA 29213 means Staphylococcus aureus (ATCC29213); STA RMETH means methicilline resistant Staphylococcus aureus (MRSA) (a clinical isolate from the University of Antwerp). ATCC means American type tissue culture.

The subject of test [2] is methicilline resistant Staphylococcus aureus (MRSA) (a clinical isolate from the University of Antwerp). Nature of the test: Microtitre plate assay, IC90 determination, STA RMETH. As to conditions: 90% inhibitory concentration for bacterial growth, 37° C., resazurin fluorescence; for IC90 (μg/ml) STA RMETH: 24 hours. As for the experimental part: as §1, §2, §3, §4
For orientation: Alamar Blue is a resazurin reagent that responds to reducing activity.

Test [3] has as its system Streptococcus pyogens (ATCC8668). Nature of the test: Microtitre plate assay, IC90 determination, SPY 8668. As to conditions: 90% inhibitory concentration for bacterial growth, 37° C., resazurin fluorescence; for IC90 (μg/ml) SPY 8668: 24 hours. How it is done: as §1, §2, §3, §4
Test [4] concerns Enterococcus faecalis (ATCC29212). Nature of the test: Microtitre plate assay, IC90 determination, EFA 29212. As to conditions: 90% inhibitory concentration for bacterial growth, 37° C., resazurin fluorescence; for IC90 (μg/ml) EFA 29212: 24 hours. As for the experimental part:
as §1, §2, §3, §4

The test system of test [5] is Staphylococcus aureus (ATCC25923). Briefly: Microtitre plate assay, IC90 determination, STA 25923. As to conditions: 90% inhibitory concentration for bacterial growth, 37° C., resazurin fluorescence; for IC90 (μg/ml) STA 25923: 24 hours. As for the experimental part:
as §1, §2, §3, §4

Test [6] has as its system Bacillus subtilis (ATCC43639). Briefly: Microtitre plate assay, IC90 determination, BSU 43639. As to conditions: 90% inhibitory concentration for bacterial growth, 37° C., resazurin fluorescence. How it is done: as §1, §2, §3, §4
For test [7], the system named is Enterococcus faecalis (ATCC14506). Nature of the test: Microtitre plate assay, IC90 determination, EFA 14506. As to conditions: 90% inhibitory concentration for bacterial growth, 37° C., resazurin fluorescence; for IC90: Enterococcus faecalis, ATCC14506, 24 h, read-out: IC90 (μg/ml) EFA 14506. How it is done:
as §1, §2, §3, §4

In test [8] the test system is Streptococcus pneumoniae (ATCC6305). Nature of the test: Microtitre plate assay, IC90 determination, SPN 6305. As to conditions: 90% inhibitory concentration for bacterial growth, 37° C., resazurin fluorescence; for IC90: Streptococcus pneumoniae, ATCC6305, 24 h, read-out: IC90 (μg/ml) SPN 6305; for IC90 (μg/ml) SPN 6305: 24 hours. How it is done: as §1, §2, §3, §4

Test [9] has as its system Streptococcus mutans (ATCC33402). Nature of the test: Microtitre plate assay, IC90 determination, SMU 33402. As to conditions: Streptococcus mutans, ATCC33402, 24 h, 90% inhibitory concentration for bacterial growth, 37° C., resazurin fluorescence, read-out: IC90 (μg/ml) SMU 33402. How it is done:
as §1, §2, §3, §4

The subject of test [10] is Pseudomonas aeruginosa (ATCC27853). Briefly: Microtitre plate assay, IC90 determination, PAE 27853. As to conditions: 90% inhibitory concentration for bacterial growth, 37° C., resazurin fluorescence; for IC90 (μg/ml) PAE 27853: 24 hours. How it is done:
as §1, §2, §3, §4

The subject of test [11] is Staphylococcus aureus (ATCC43300). Nature of the test: Microtitre plate assay, IC90 determination, STA 43300. As to conditions: 90% inhibitory concentration for bacterial growth, 37° C., resazurin fluorescence. As for the experimental part:
as §1, §2, §3, §4

As to `COc1nc2ccc(Br)cc2cc1C(c1ccccc1)C(O)(CCN1CCN(C)CC1)c1ccc2cc(Br)ccc2c1` (racemic) [Compound 154], the “IC90 (μg/ml) LMO 49594” value in [1] turned out to be 27.4 µg/mL (≈ 39.7 µM). Further, in [2], the “IC90 (μg/ml) STA RMETH” value is 24.5 µg/mL (≈ 35.5 µM). The “IC90 (μg/ml) SPY 8668” value in test [3] came out at 27.4 µg/mL (≈ 39.7 µM). The “IC90 (μg/ml) EFA 29212” value in test [4] stood at 27.4 µg/mL (≈ 39.7 µM). Besides, the “IC90 (μg/ml) STA 25923” value in test [5] turned out to be 13.8 µg/mL (≈ 20 µM). Further, the “IC90 (μg/ml) BSU 43639” value in test [6] (24 hours) came out at 10.9 µg/mL (≈ 15.8 µM).
In the case of `COc1nc2ccc(Br)cc2cc1C(c1ccccc1)C(O)(CCN1CCCCC1)c1ccc2cc(Br)ccc2c1` (stereo not shown) [Compound 155], the IC90 in test [7] is 26.9 µg/mL (≈ 39.9 µM).
For the compound `COc1nc2ccc(Br)cc2cc1C(c1ccccc1)C(O)(CCN1CCCCC1)c1cccc2ccccc12` (stereo not shown) [Compound 145], the IC90 in test [7] was determined as 23.7 µg/mL (≈ 39.8 µM); in [8], 9.4 µg/mL (≈ 15.8 µM).
For the compound `COc1nc2ccc(Br)cc2cc1C(c1ccccc1)C(O)(CCN1CCN(C)CC1)c1cc(Br)cc2ccccc12` (racemic) [Compound 151], the “IC90 (μg/ml) STA RMETH” value in [2] came out at 15.4 µg/mL (≈ 22.3 µM). The “IC90 (μg/ml) EFA 14506” value in [7] (24 hours) worked out at 15.4 µg/mL (≈ 22.3 µM).
Turning to `COc1nc2ccc(Br)cc2cc1C(c1ccccc1)C(O)(CCn1ccnc1)c1ccccc1` (stereo not shown) [Compound 49], the “IC90 (μg/ml) LMO 49594” value in [1] was 10.5 µg/mL (≈ 19.9 µM). Besides, the IC90 was determined as 11.8 µg/mL (≈ 22.3 µM) in test [2] (Staphylococcus aureus, MRSA, 24 h, read-out: IC90 (μg/ml) STA RMETH); 10.5 µg/mL (≈ 19.9 µM) in test [9]; 5.9 µg/mL (≈ 11.2 µM) in [5] (Staphylococcus aureus, ATCC25923, 24 h, read-out: IC90 (μg/ml) STA 25923); 13.3 µg/mL (≈ 25.2 µM) in [8]. The “IC90 (μg/ml) SPY 8668” value in test [3] is 10.5 µg/mL (≈ 19.9 µM).
As for `COc1nc2ccc(Br)cc2cc1C(c1ccc(Cl)cc1)C(O)(CCN(C)C)c1ccccc1` (stereo not shown) [Compound 36], the IC90 in [1] (Listeria monocytogenes, ATCC49594, 24 h, read-out: IC90 (μg/ml) LMO 49594) amounted to 5.4 µg/mL (≈ 10 µM); in [10] (Pseudomonas aeruginosa, ATCC27853, 24 h, read-out: IC90 (μg/ml) PAE 27853), 4.8 µg/mL (≈ 8.89 µM); in test [3] (Streptococcus, ATCC8668, 24 h, read-out: IC90 (μg/ml) SPY 8668), 0.4 µg/mL (≈ 0.741 µM); in test [4] (Enterococcus faecalis, ATCC29212, 24 h, read-out: IC90 (μg/ml) EFA 29212) it was 4.8 µg/mL (≈ 8.89 µM); in [9], 3.8 µg/mL (≈ 7.04 µM); in [11] (Staphylococcus aureus, ATCC43300, 24 h, read-out: IC90 (μg/ml) STA 43300) it was 4.8 µg/mL (≈ 8.89 µM). The IC90 in test [6] (Bacillus subtilis, ATCC43639, 24 h, read-out: IC90 (μg/ml) BSU 43639) worked out at 24.1 µg/mL (≈ 44.6 µM). The “IC90 (μg/ml) SPN 6305” value in [8] came to 2.7 µg/mL (≈ 5 µM).
Turning to `COc1nc2ccc(Br)cc2cc1C(c1ccccc1)C(O)(CCN(C)C)c1cccc(F)c1` (stereo not shown) [Compound 39], in test [1], the “IC90 (μg/ml) LMO 49594” value turned out to be 4.7 µg/mL (≈ 8.98 µM). Besides, the “IC90 (μg/ml) PAE 27853” value in test [10] is 10.4 µg/mL (≈ 19.9 µM). Also, in test [3], the “IC90 (μg/ml) SPY 8668” value turned out to be 1.9 µg/mL (≈ 3.63 µM). In test [4], the “IC90 (μg/ml) EFA 29212” value stood at 10.4 µg/mL (≈ 19.9 µM). In addition, the IC90 in [9] amounted to 11.7 µg/mL (≈ 22.4 µM). In addition, the “IC90 (μg/ml) STA 25923” value in test [5] is 10.4 µg/mL (≈ 19.9 µM). The “IC90 (μg/ml) STA 43300” value in test [11] (24 hours) stood at 13.1 µg/mL (≈ 25 µM). Also, the “IC90 (μg/ml) SPN 6305” value in [8] was determined as 5.9 µg/mL (≈ 11.3 µM).
Consider `COc1nc2ccc(Br)cc2cc1C(c1ccccc1)C(O)(CCN1CCN(C)CC1)c1ccc2ccccc2c1` (racemic) [Compound 137], for which, in test [10], the “IC90 (μg/ml) PAE 27853” value is 21.2 µg/mL (≈ 34.7 µM). For the same compound, in [2], the “IC90 (μg/ml) STA RMETH” value is 21.2 µg/mL (≈ 34.7 µM). For the same compound, the “IC90 (μg/ml) STA 25923” value in test [5] worked out at 8.4 µg/mL (≈ 13.8 µM). Moreover, the “IC90 (μg/ml) SPN 6305” value in [8] is 23.8 µg/mL (≈ 39 µM).

For the origin of these results see US7709498B2, “Quinoline derivatives as antibacterial agents” (Janssen Pharmaceutica N.V., priority 2005, dated 2010).
